Experimental data as given in PubChem BioAssay (NCI).
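A five-concentration, 48-hour dose response in 96-well plates underlies each endpoint, interpolated linearly between surrounding concentrations. GI50 is the concentration that inhibits growth by half. At the TGI there is no net growth.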

Columns and labels:
Assay in all cases: NCI anticancer screen, dose series, 48 h
OVCAR-4 ovarian = test system: OVCAR-4 ovarian
HL-60(TB) leukemia = test system: HL-60(TB) leukemia
NCI-H522 lung = test system: NCI-H522 lung
CAKI-1 renal = test system: CAKI-1 renal
OVCAR-3 ovarian = test system: OVCAR-3 ovarian
NCI/ADR-RES ovarian = test system: NCI/ADR-RES ovarian
MALME-3M melanoma = test system: MALME-3M melanoma
NCI-H226 lung = test system: NCI-H226 lung

| SMILES | GI50 (OVCAR-4 ovarian) | TGI (OVCAR-4 ovarian) | GI50 (HL-60(TB) leukemia) | TGI (HL-60(TB) leukemia) | GI50 (NCI-H522 lung) | TGI (NCI-H522 lung) | GI50 (CAKI-1 renal) | TGI (CAKI-1 renal) | GI50 (OVCAR-3 ovarian) | TGI (OVCAR-3 ovarian) | GI50 (NCI/ADR-RES ovarian) | TGI (NCI/ADR-RES ovarian) | GI50 (MALME-3M melanoma) | TGI (MALME-3M melanoma) | GI50 (NCI-H226 lung) | TGI (NCI-H226 lung) |
| --- | --- | --- | --- | --- | --- | --- | --- | --- | --- | --- | --- | --- | --- | --- | --- | --- |
| C=C1CC[C@@H]2[C@](C)(COC(C)=O)[C@H](OC(C)=O)CC[C@@]2(C)[C@@H]1CC(Nc1ccc(S(=O)(=O)Nc2ccc(Cl)nn2)cc1)C1=CCOC1=O (some centres not stated) | 1.47 µM | 3.17 µM | 1.32 µM | 4.44 µM | 0.754 µM | 2.1 µM | 2.28 µM | 10 µM | 1.22 µM | 2.51 µM | 1.87 µM | 6.2 µM | 1.72 µM | 3.9 µM |  |  |
| Cn1cccc1-c1cc(-c2ccc(Br)cc2)[nH]c(=O)c1C#N | > 100 µM | > 100 µM |  |  | 82.1 µM | > 100 µM | > 100 µM | > 100 µM | 85.8 µM | > 100 µM | > 100 µM | > 100 µM | > 100 µM | > 100 µM | > 100 µM | > 100 µM |
| COc1ccc(N(/C=C/C(=O)C(F)(F)F)CC(=O)c2ccc(F)cc2)cc1 | 45.3 µM | > 100 µM |  |  | 18.7 µM | 36.9 µM | 21.7 µM | 72.1 µM | 21.2 µM | 48.6 µM | 31.2 µM | 87.4 µM | 16.5 µM | 41.4 µM | 12.1 µM | 33.3 µM |
| CCSc1nc(SCC)c2c(-c3ccc(OC)c(OC)c3)c(C#N)c(SCC)nc2n1 | 31.8 µM | > 100 µM | 81.1 µM | > 100 µM | 41.1 µM | > 100 µM | 5.39 µM | 25.3 µM | 10.5 µM | 32.5 µM | 14.4 µM | 45 µM |  |  | 20.5 µM | 54.6 µM |
| Cn1cc(-c2csc(-c3cn(CCCN4CCCCC4)c4ccccc34)n2)c2cccnc21 | 2.02 µM | 4.07 µM |  |  | 17.8 µM | 41 µM |  |  | 1.7 µM | 3.14 µM |  |  | 1.61 µM | 3.19 µM | 2.55 µM | 7.62 µM |
| O=C(Nc1ccc(Oc2cccc(F)c2)c(Cl)c1)c1cnccn1 | 36.6 µM | > 50 µM | 1.29 µM | 3.72 µM | 1.19 µM | > 50 µM | 2.13 µM | > 50 µM | 1 µM | 5.15 µM |  |  | 3.03 µM | > 50 µM | 2.6 µM | > 50 µM |
| CCc1ccc2c(c1)C(=O)c1c-2n(CCCN=[N+]=[N-])c(=O)c2cc(OC)c(OC)cc12 | > 100 µM | > 100 µM | > 100 µM | > 100 µM | 49 µM | > 100 µM |  |  | > 100 µM | > 100 µM | > 100 µM | > 100 µM | > 100 µM | > 100 µM | > 100 µM | > 100 µM |
| Cc1ccc(-c2csc(NC(=O)N3CCN(c4cc5c(cc4F)c(=O)c(C(=O)O)cn5C4CC4)CC3)n2)cc1 | 2.64 µM | > 100 µM | 0.796 µM | 4.51 µM | 0.291 µM | 2.15 µM |  |  | 0.492 µM | 18.7 µM | 4.65 µM | > 100 µM | 1.1 µM | 5.67 µM | 1.44 µM | 8.85 µM |
| CN(C)c1ccc(C(=NO)c2ccc(N(C)C)cc2)cc1 | 89 µM | > 100 µM | 1.62 µM | > 100 µM | 1.08 µM | > 100 µM | 1.95 µM | 7.86 µM | 2.22 µM | 10.1 µM |  |  | 2.63 µM | > 100 µM | 9.43 µM | > 100 µM |
| CCC[CH2][Sn]1([CH2]CCC)[O]C2C(CO)OC(n3ccc(N)nc3=O)C2[O]1 (configuration not stated) | 1.33 µM | 2.68 µM |  |  | 0.186 µM | 0.424 µM | 1.19 µM | 2.53 µM | 1.58 µM | 2.94 µM | 2.01 µM | 4.37 µM | 0.701 µM | 2.15 µM | 2.02 µM | 4.25 µM |
| COc1cccc(-c2cc3c4c(nc5ccccc53)C(=O)c3cccnc3-c4n2)c1 | 1.94 µM | 8.5 µM |  |  | 0.429 µM | 2.01 µM | 3.36 µM | 11.5 µM | 0.3 µM |  | 2.22 µM | 7.92 µM | 0.822 µM | 3.32 µM | 6.27 µM | 22.3 µM |
| COc1ccc(C(=O)/C=C/c2cccc(Nc3ccnc4cc(Cl)ccc34)c2)cc1 |  |  | 2.98 µM | > 100 µM | 1.88 µM | > 100 µM |  |  |  |  |  |  | 1.79 µM | 6.3 µM | 1.78 µM | > 100 µM |
| COc1ccc(/C=C(\C(=O)NCc2cccnc2)S(=O)(=O)c2ccccc2)cc1OC |  |  | 2.01 µM | 6.42 µM | 1.7 µM | 4.61 µM | 3.29 µM | 11.7 µM | 3.22 µM | 11.4 µM | 18.2 µM | > 100 µM | 3.06 µM | 11.9 µM | 3.13 µM | 10.7 µM |
| CN1CCc2[nH]nc(-c3n[nH]c4c3CN(C)CC4)c2C1 |  | > 100 µM |  |  |  | > 100 µM |  | > 100 µM |  | > 100 µM |  | > 100 µM |  | > 100 µM |  | > 100 µM |
| CC(=O)[CH-]C(=O)c1ccccc1.CC(=O)[CH-]C(=O)c1ccccc1.CC(=O)[CH-]C(=O)c1ccccc1.[In+3] | 78.8 µM | > 100 µM | 14.5 µM | 41.2 µM | 21.8 µM | 59.8 µM | 99.7 µM | > 100 µM | 78 µM | > 100 µM |  |  | 25.2 µM | 84.1 µM | 24.7 µM | 84.3 µM |
| CC(C)(C)c1[nH]nc2c1C(c1cc3ccccc3[nH]c1=O)Nc1cc(C(=O)OCc3ccccc3)ccc1N2 (configuration not stated) | 4.12 µM | > 100 µM | 3.66 µM | > 100 µM | 3.11 µM | 8.78 µM | 8.75 µM | > 100 µM |  |  | > 100 µM | > 100 µM | 2.49 µM | 7.47 µM | 3.2 µM | > 100 µM |
| CCOC(=O)C1CCCCN1C(=O)c1ccc(Nc2cnc3cc(C(F)(F)F)ccc3n2)cc1 (configuration not stated) |  |  | 19.1 µM | > 100 µM | 30.4 µM | > 100 µM | 18 µM | 33.9 µM | 15.5 µM | 31.6 µM | 14.1 µM | 29.2 µM | 6.89 µM | 22.1 µM | 24.5 µM | 45.6 µM |
| Oc1c(Cl)c(Cl)c(O)c2c1CCCC2 |  |  |  |  |  |  |  |  |  |  |  | 38 µM |  | 9.48 µM |  |  |
